Test results published in patent US20260240906A1, “MUSCLE MASS INCREASING AGENT AND ENDURANCE IMPROVING AGENT” (KOHAKU BIO TECHNOLOGY CO., LTD., priority 2023, published 2026).

Key:
Format in all cases: cell-based, mouse
[1] = system: C2Cl2 myotube cells; test: Effect on intracellular ATP concentration (luciferin-luciferase system); settings: 6 hours or 12 hours
Method: (§1) The amber extract obtained through extraction by the method of Example 1 was analyzed for its action using myoblasts C2Cl2. The C2Cl2 cells are cells established from mouse regenerating muscles (striated muscles) and are considered to be derived from muscle satellite cells. The myoblasts, when cultured in a differentiation inducing medium, are fused and differentiated into myotube cells.
(§2) The C2Cl2 myoblasts were cultured in Dulbecco's modified Eagle medium (DMEM) supplemented with 10% FBS, penicillin (100 Us/ml), and streptomycin ([…]) under conditions of 37° C. and 5% CO2. Differentiation into myotube cells was induced by medium replacement with DMEM containing 2% horse serum when the cells reached 95% confluency. The experiment was carried out using the differentiated C2Cl2 myotube after 5 to 7 days from the induction of differentiation.
Intracellular ATP levels were measured using a luciferin-luciferase system. C2Cl2 cells were inoculated at 0.5×10^4 cells/well to a 96-well plate and cultured at 37° C. for 48 hours until confluent. After induction of differentiation for 5 days, the cells were treated with the amber extract (25 or 50 μg/mL) prepared by the method of Example 1 or succinic acid (2.5 or 5 μg/mL) for 6 hours or 12 hours. The luminescence of each well was measured at 480/530 nm (excitation/luminescence) using a microplate reader (Synergy H1, BioTek Instruments).

[2] = system: C2Cl2 myotube cells; test: Detection of mitochondrial ROS; settings: 1, 2.5, or 5 μg/mL, 24 hours
Method: as §1, §2
Accordingly, in order to confirm this, mitochondrial ROS was detected. C2Cl2 cells were inoculated at 0.5×10^4 cells/well to a 96-well plate and cultured at 37° C. for 48 hours until confluent. After induction of differentiation for 5 days in a differentiation inducing medium, the cells were treated with the amber extract ([…]) or succinic acid (1, 2.5, or 5 μg/mL) for 24 hours. The mitochondrial ROS was measured at 485/565 nm (excitation/fluorescence) using Mitochondrial ROS Detection Assay Kit (Cayman Chemical Company).

[3] = system: C2Cl2 myotube cells; test: Detection of mitochondrial membrane potential (JC-1); settings: 1, 2.5, or 5 μg/mL, 24 hours
Method: as §1, §2
Mitochondrial membrane potential serving as an indicator for mitochondrial activation was also analyzed. C2Cl2 cells were inoculated at 0.5×10^4 cells/well to a 96-well plate and cultured at 37° C. for 48 hours until confluent. […] The mitochondrial membrane potential was measured at green: 485/535 nm (excitation/fluorescence) and red: 535/595 nm (excitation/fluorescence) using JC-1 MitoMP Detection Kit (Dojindo Laboratories).

For `O=C(O)CCC(=O)O` [succinic acid], the ATP concentration ([1]; 2.5 μg/mL) was “no change”, the ATP concentration ([1]; 5 ug/mL) was “no change” and the “mitochondrial activation (mitochondrial ROS)” value [2] was “no mitochondrial activation”. The “mitochondrial activation (membrane potential)” value [3] was “no mitochondrial activation”.
